Laboratory results from patent US20130136772A1, “REGULATION OF IMMUNE RESPONSE BY COLOCYNTHIN AND/OR ITS DERIVATIVES” (priority 2010, published 2013).

How the values were obtained:
leucocyte migration = experiment: In vivo leucocyte migration (carrageenan induced pleurisy); parameters: species or system mice; settings: for EXUDATE VOLUME Mean ± S.E.: 1 h before and 6 h after carrageenan, pleural exudate at 24 h
Method: Mice were injected with 0.2 ml of carrageenan (1% w/v) solution in sterilised normal saline into the pleural cavity by the modified method of Meacock and Kitchen, 1979 [Meacock S C R, Kitchen E A, (1979). Effect of non-steroidal antiinflammatory drug benoxaprofen on leukocyte migration. Journal of Pharmacy & Pharmacology; 31: 366-370]. The test drug was administered orally 1 h before and 6 h after the injection. After 24 h of carrageenan injection the pleural exudate was collected, volume measured and the total leucocyte count of the pleural fluid was determined (Table 3). Flowcytometry as a tool for evaluation of neutrophils is particularly useful because of their larger size than monocytes and lymphocytes when analysed on the forward scatter [FSc]. The percentage of these can be analysed by selectively ‘gating’ the neutrophils without physical separation of the cells (FIG. 4).

vascular permeability = experiment: Acetic acid-induced vascular permeability; format: in vivo, mice; settings: for DYE CONCENTRATION: Evans blue, acetic acid i.p.
Method: Acetic acid-induced increased vascular permeability in mouse model is a capillary permeability assay. Reduction in the increased peritoneal vascular permeability indicates the suppression of the vascular response in the process of acute inflammation.
Mice were injected with […] of Evans blue dye (0.25% w/v in normal saline) intravenously after 30 min of oral administration of the drug. Fifteen minutes later, the mice were injected intraperitoneally (1 ml/100 g of body weight) with freshly prepared 0.6% of acetic acid (v/v) in normal saline. After 30 min of acetic acid injection, the peritoneal cavities were washed with 5 ml of heparinised sterile normal saline and centrifuged (3000×g) for 10 min Absorbance of the supernatant was measured at 610 nm using a spectrophotometer (Table 3) [Whittle B. A. The use of changes in capillary permeability in mice to distinguish between narcotic and non-narcotic analgesics. Brit J Pharmacol 1964; 2: 246-253].

[1] = graded oral doses, highly significant effect at 10 mg/kg oral dose

## CC(=O)OC(C)(C)/C=C/C(=O)[C@](C)(O)[C@H]1[C@H](O)C[C@@]2(C)[C@@H]3CC=C4[C@@H](C=C(O[C@@H]5O[C@H](CO)[C@@H](O)[C@H](O)[C@H]5O)C(=O)C4(C)C)[C@]3(C)C(=O)C[C@]12C [AD-B-63B, 2-O-β-D-glucopyranosyl cucurbitacin E]
Leucocyte migration; 1 mg/kg p.o.
  % inhibition of exudate volume: (22.72%↓)
  % inhibition of total leucocyte count: (12.12%↓)
  EXUDATE VOLUME Mean ± S.E.: 0.85 ± 0.10 mL
Leucocyte migration; 5 mg/kg p.o.
  % inhibition of exudate volume: (38.18%↓)
  % inhibition of total leucocyte count: (23.52%↓)
  EXUDATE VOLUME Mean ± S.E.: 0.68 ± 0.18 mL
Leucocyte migration; 10 mg/kg p.o.
  % inhibition of exudate volume: (44.54%↓)
  % inhibition of total leucocyte count: (24.39%↓)
  EXUDATE VOLUME Mean ± S.E.: 0.61 ± 0.10 mL
Leucocyte migration; [1]
  exudates volume against control: dose dependent inhibition
  total leucocytes count against control: dose dependent inhibition
Vascular permeability; 1 mg/kg p.o.
  percent reduction of dye concentration: (10.71%↓)
  DYE CONCENTRATION: 0.50 ± 0.02 μg/25 g mouse
Vascular permeability; 5 mg/kg p.o.
  percent reduction of dye concentration: 32.14%
  DYE CONCENTRATION: 0.38 ± 0.02 μg/25 g mouse
Vascular permeability; 5 mg/kg p.o., listed as AD-B-63-B
  percent reduction of dye concentration: (32.14%↓)
Vascular permeability; 10 mg/kg p.o.
  percent reduction of dye concentration: 35.71%
  DYE CONCENTRATION: 0.36 ± 0.02 μg/25 g mouse
Vascular permeability; 10 mg/kg p.o., listed as AD-B-63-B
  percent reduction of dye concentration: (35.71%↓)
